Experimental data published in US6608082B1, “Treatment of erectile dysfunction using isoquinoline compound melanocortin receptor ligands” (Lion Bioscience AG, priority 1998, dated 2003).
Read-outs that look alike come from different tables or passages of the source.

Key:
MCR-4 = molecular target: T1, MCR-4 (Homo sapiens, UniProt P32245); test: Melanocortin receptor binding assay, competition with 125I-HP 467, HEK 293 cells expressing hMCR-4; conditions: inhibition of binding of 125I-HP 467, HEK 293 cells expressing MCR-4; for IC50: read-out: MC-4 IC50
T1 construct: expressed in transfected cells; host or cells: HEK 293
How it was run: (§1)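 Test compounds compete on intact HEK 293 cells carrying hMCR-1 (2×10^4 per tube) or hMCR-4 (4×10^3 per tube), suspended in PBS, 10% calf serum, 1 mM CaCl2.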

MCR-1 = molecular target: T2, MCR-1 (Homo sapiens, UniProt Q01726); test: Melanocortin receptor binding assay, competition with 125I-HP 467, HEK 293 cells expressing hMCR-1; conditions: for IC50 / MC-1 IC50: inhibition of binding of 125I-HP 467, HEK 293 cells expressing MCR-1; for IC50: read-out: MC-1 IC50; for % Disp. MC-1 10 μM: displacement of 125I-HP 467 at 10 μM isoquinoline compound
T2 construct: expressed in transfected cells; host or cells: HEK 293
How it was run: as §1

T1 sequence (P32245 whole entry): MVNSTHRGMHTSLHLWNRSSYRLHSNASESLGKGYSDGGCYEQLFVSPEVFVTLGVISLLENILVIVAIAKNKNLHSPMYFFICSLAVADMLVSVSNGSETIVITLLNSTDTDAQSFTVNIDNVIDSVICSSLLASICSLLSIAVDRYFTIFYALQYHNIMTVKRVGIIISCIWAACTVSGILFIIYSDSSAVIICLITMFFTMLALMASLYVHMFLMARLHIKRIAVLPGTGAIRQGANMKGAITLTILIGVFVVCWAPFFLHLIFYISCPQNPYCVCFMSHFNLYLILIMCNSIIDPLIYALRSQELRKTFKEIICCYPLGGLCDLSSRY
T2 sequence (Q01726 whole entry): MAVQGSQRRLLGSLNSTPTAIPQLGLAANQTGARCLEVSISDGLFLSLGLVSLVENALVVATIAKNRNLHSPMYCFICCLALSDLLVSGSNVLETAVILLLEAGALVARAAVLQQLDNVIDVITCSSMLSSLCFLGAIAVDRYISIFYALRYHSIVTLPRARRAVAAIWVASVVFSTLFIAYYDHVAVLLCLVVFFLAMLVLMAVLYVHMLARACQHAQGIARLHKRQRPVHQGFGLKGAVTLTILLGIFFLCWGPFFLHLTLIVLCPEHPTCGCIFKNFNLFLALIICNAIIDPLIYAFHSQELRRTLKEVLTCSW

## NCC(CCCCN1Cc2ccccc2C(CNC2CCCCCC2)C1c1ccccc1Br)NCc1ccccc1 (centres unmarked) [Cmpd 235]
MCR-4; TRG 2414 library
  IC50: 5.35 µM
MCR-1; TRG 2414 library
  IC50: 2.86 µM

## CC(C)Cc1ccc(C(C)CNC(CN)CCCCN2Cc3ccccc3C(CNC3CCCCCC3)C2c2ccccc2Br)cc1 (centres unmarked) [Cmpd 236]
MCR-4; TRG 2414 library
  IC50: 18 µM
MCR-1; TRG 2414 library
  IC50: 14 µM

## NCC(N)CCCCN1Cc2ccccc2C(CNC2CCCCC2)C1c1ccccc1Br (centres unmarked) [Cmpd 237]
MCR-4; TRG 2414 library
  IC50: 3.61 µM
MCR-1; TRG 2414 library
  IC50: 5.87 µM

## NCC(CCCCN1Cc2ccccc2C(CNC2CCCCC2)C1c1ccccc1Br)NCCc1ccccc1 (centres unmarked) [Cmpd 238]
MCR-4; TRG 2414 library
  IC50: 5.22 µM
MCR-1; TRG 2414 library
  IC50: 2.78 µM

## NCC(CCCCN1Cc2ccccc2C(CNC2CCCCC2)C1c1ccccc1Br)NCc1ccccc1 (centres unmarked) [Cmpd 239]
MCR-4; TRG 2414 library
  IC50: 6.27 µM
MCR-1; TRG 2414 library
  IC50: 3.3 µM

## CC(C)Cc1ccc(C(C)CNC(CN)CCCCN2Cc3ccccc3C(CNC3CCCCC3)C2c2ccccc2Br)cc1 (centres unmarked) [Cmpd 240]
MCR-4; TRG 2414 library
  IC50: 9.9 µM
MCR-1; TRG 2414 library
  IC50: 8.98 µM

## COc1ccccc1CCNCC1c2ccccc2CN(CCCCC(N)CN)C1c1ccc(Cl)cc1Cl (centres unmarked) [Cmpd 241]
MCR-4; TRG 2414 library
  MC-4 IC50: no fit
MCR-1; TRG 2414 library
  MC-1 IC50: no fit

## NCC(N)CCCCN1Cc2ccccc2C(CNCCc2cccc(Cl)c2)C1c1ccc(Cl)cc1Cl (centres unmarked) [Cmpd 244]
MCR-4; TRG 2414 library
  MC-4 IC50: no fit
MCR-1; TRG 2414 library
  IC50: 44.1 µM

## COc1ccc(CNCC2c3ccccc3CN(CCCCC(N)CN)C2c2ccc(Cl)cc2Cl)cc1 (centres unmarked) [Cmpd 247]
MCR-4; TRG 2414 library
  MC-4 IC50: no fit
MCR-1; TRG 2414 library
  MC-1 IC50: no fit

## COc1ccc(CCNCC2c3ccccc3CN(CCCCC(N)CN)C2c2cc(C(F)(F)F)cc(C(F)(F)F)c2)cc1 (centres unmarked) [Cmpd 262]
MCR-4; TRG 2414 library
  MC-4 IC50: no fit
MCR-1; TRG 2414 library
  MC-1 IC50: no fit

## COc1ccccc1CCNCC1c2ccccc2CN(CCCCC(N)CN)C1c1ccc(Oc2ccccc2)cc1 (centres unmarked) [Cmpd 265]
MCR-4; TRG 2414 library
  MC-4 IC50: no fit
MCR-1; TRG 2414 library
  MC-1 IC50: no fit

## NCC(N)CCCCN1Cc2ccccc2C(CNCCc2cccc(Cl)c2)C1c1ccc(Oc2ccccc2)cc1 (centres unmarked) [Cmpd 268]
MCR-4; TRG 2414 library
  MC-4 IC50: no fit
MCR-1; TRG 2414 library
  MC-1 IC50: no fit

## COc1ccc(CNCC2c3ccccc3CN(CCCCC(N)CN)C2c2ccc(Oc3ccccc3)cc2)cc1 (centres unmarked) [Cmpd 271]
MCR-4; TRG 2414 library
  MC-4 IC50: no fit
MCR-1; TRG 2414 library
  MC-1 IC50: no fit

## COc1ccc(CCNCC2c3ccccc3CN(CCCCC(N)CN)C2c2ccc(Oc3ccccc3)cc2)cc1 (centres unmarked) [Cmpd 274]
MCR-4; TRG 2414 library
  MC-4 IC50: no fit
MCR-1; TRG 2414 library
  MC-1 IC50: no fit

## CCCOc1ccc(C2C(CNCCc3ccccc3OC)c3ccccc3CN2CCCCC(N)CN)cc1 (centres unmarked) [Cmpd 277]
MCR-4; TRG 2414 library
  MC-4 IC50: no fit
MCR-1; TRG 2414 library
  MC-1 IC50: no fit

## CCCOc1ccc(C2C(CNCCc3cccc(Cl)c3)c3ccccc3CN2CCCCC(N)CN)cc1 (centres unmarked) [Cmpd 280]
MCR-4; TRG 2414 library
  MC-4 IC50: no fit
MCR-1; TRG 2414 library
  MC-1 IC50: no fit

## CCCOc1ccc(C2C(CNCc3ccc(OC)cc3)c3ccccc3CN2CCCCC(N)CN)cc1 (centres unmarked) [Cmpd 283]
MCR-4; TRG 2414 library
  MC-4 IC50: no fit
MCR-1; TRG 2414 library
  MC-1 IC50: no fit

## Cn1cccc1C1C(CNC2CCCCC2)c2ccccc2CN1CCN (centres unmarked) [TRG 2405-4]
MCR-4; TRG 2405 section
  IC50: 11.6 µM
MCR-1; TRG 2405 section
  IC50: 2.17 µM
MCR-1; first of duplicate
  % Disp. MC-1 10 μM: 76.8%
MCR-1; second of duplicate
  % Disp. MC-1 10 μM: 77.7%

## NCCN1Cc2ccccc2C(CNC2CCCCC2)C1c1cc(C(F)(F)F)cc(C(F)(F)F)c1 (centres unmarked) [TRG 2405-28]
MCR-4; TRG 2405 section
  IC50: 9.24 µM
MCR-1; TRG 2405 section
  IC50: 8.75 µM
MCR-1; first of duplicate
  % Disp. MC-1 10 μM: 52%
MCR-1; second of duplicate
  % Disp. MC-1 10 μM: 52.5%

## Cc1cccc(C2C(CNC3CCCCC3)c3ccccc3CN2CCN)c1 (centres unmarked) [TRG 2405-47]
MCR-4; TRG 2405 section
  IC50: 18.9 µM
MCR-1; TRG 2405 section
  IC50: 14.3 µM
MCR-1; first of duplicate
  % Disp. MC-1 10 μM: 42.3%
MCR-1; second of duplicate
  % Disp. MC-1 10 μM: 45.8%

## NCCN1Cc2ccccc2C(CNC2CCCCC2)C1c1ccc([N+](=O)[O-])o1 (centres unmarked) [TRG 2405-80]
MCR-4; TRG 2405 section
  IC50: 20.8 µM
MCR-1; TRG 2405 section
  IC50: 8.66 µM
MCR-1; first of duplicate
  % Disp. MC-1 10 μM: 30.8%
MCR-1; second of duplicate
  % Disp. MC-1 10 μM: 52.9%

## NCCN1Cc2ccccc2C(CNC2CCCCC2)C1c1ccc[nH]1 (centres unmarked) [TRG 2405-85]
MCR-4; TRG 2405 section
  IC50: 33.5 µM
MCR-1; TRG 2405 section
  IC50: 5.98 µM
MCR-1; first of duplicate
  % Disp. MC-1 10 μM: 57.1%
MCR-1; second of duplicate
  % Disp. MC-1 10 μM: 59.8%

## CNC(CN)CN1Cc2ccccc2C(CNC2CCCCC2)C1c1ccc(Cl)cc1Cl (centres unmarked) [TRG 2405-100]
MCR-4; TRG 2405 section
  IC50: 11.2 µM
MCR-1; TRG 2405 section
  IC50: 12.2 µM
MCR-1; first of duplicate
  % Disp. MC-1 10 μM: 54.2%
MCR-1; second of duplicate
  % Disp. MC-1 10 μM: 59.6%

## CNC(CN)CN1Cc2ccccc2C(CNC2CCCCC2)C1c1ccccn1 (centres unmarked) [TRG 2405-111]
MCR-4; TRG 2405 section
  IC50: 17.1 µM
MCR-1; TRG 2405 section
  IC50: 7.48 µM
MCR-1; first of duplicate
  % Disp. MC-1 10 μM: 57.2%
MCR-1; second of duplicate
  % Disp. MC-1 10 μM: 51%

## CNC(CN)CN1Cc2ccccc2C(CNC2CCCCC2)C1c1cccc(Oc2ccc(OC)cc2)c1 (centres unmarked) [TRG 2405-124]
MCR-4; TRG 2405 section
  IC50: 3.1 µM
MCR-1; TRG 2405 section
  IC50: 5.16 µM
MCR-1; first of duplicate
  % Disp. MC-1 10 μM: 65.2%
MCR-1; second of duplicate
  % Disp. MC-1 10 μM: 63%

## CNC(CN)CN1Cc2ccccc2C(CNC2CCCCC2)C1c1ccc(F)c(Br)c1 (centres unmarked) [TRG 2405-126]
MCR-4; TRG 2405 section
  IC50: 12.8 µM
MCR-1; TRG 2405 section
  IC50: 5.34 µM
MCR-1; first of duplicate
  % Disp. MC-1 10 μM: 52.4%
MCR-1; second of duplicate
  % Disp. MC-1 10 μM: 58.4%

## CNC(CN)CN1Cc2ccccc2C(CNC2CCCCC2)C1c1cccc(O)c1 (centres unmarked) [TRG 2405-133]
MCR-4; TRG 2405 section
  IC50: 12.4 µM
MCR-1; TRG 2405 section
  IC50: 20 µM
MCR-1; first of duplicate
  % Disp. MC-1 10 μM: 37.7%
MCR-1; second of duplicate
  % Disp. MC-1 10 μM: 44.1%
